From US20250109121A1, “POTENT AND SELECTIVE SMARCA2 DEGRADING CHIMERIC MOLECULES AS CANCER THERAPEUTICS” (BOARD OF REGENTS, THE UNIVERSITY OF TEXAS SYSTEM, priority 2021, published 2025)
“Also recorded” adds a separate entry of the source.

Experiments:
[1] = system: H1793; experiment: Cell proliferation (colony assay) IC50; type: cell-based; conditions: Homo sapiens, NCI-H1793; H1793, mutant SMARCA4
[2] = system: H322; experiment: Cell proliferation (colony assay) IC50; type: cell-based; conditions: NCI-H322; H322, mutant SMARCA4
Method: (§1) Cell lines with wild-type SMARCA4 (HCC44, H2122, H1792 and H1975) and cell lines with mutant SMARCA4 (H1693, HCC515, H322, and H1299) were seeded in appropriate dilutions to form colonies in about 1-3 weeks. Cells were treated with ACBI1 or Compound 101 at concentrations of 0.001, 0.01, 0.1, 1, and 10 μm. Colonies were fixed with glutaraldehyde (6% v/v), stained with crystal violet (0.5% w/v) and the percent area of colonies was determined (FIGS. 3A and 3B). In cell lines with wild-type SMARCA4, inhibition of colony growth was more pronounced after treatment with ACBI1 than Compound 101 (FIG. 3A).

[3] = system: H1693; experiment: Cell proliferation (colony assay) IC50; type: cell-based; conditions: Homo sapiens, NCI-H1693; H1693, mutant SMARCA4
Method: as §1

[4] = system: H1792; experiment: Cell proliferation (colony assay) IC50; type: cell-based; conditions: Homo sapiens, NCI-H1792; H1792, wild-type SMARCA4
Method: as §1

[5] = system: HCC44; experiment: Cell proliferation (colony assay) IC50; type: cell-based; conditions: Homo sapiens; HCC44, wild-type SMARCA4
Method: as §1

[6] = system: HCC515; experiment: Cell proliferation (colony assay) IC50; type: cell-based; conditions: Homo sapiens; HCC515, mutant SMARCA4
Method: as §1

[7] = system: H2228; experiment: Cell proliferation (colony assay) IC50; type: cell-based; conditions: Homo sapiens, NCI-H2228; H2228, wild-type SMARCA4
[8] = system: mutant SMARCA4 cells; experiment: Colony assay / cell proliferation, mutant SMARCA4 cell lines as a group; type: cell-based
Method: as §1

[9] = system: A549; experiment: Cell proliferation (colony assay) IC50; type: cell-based; conditions: Homo sapiens; A549, mutant SMARCA4
[10] = system: H2023; experiment: Cell proliferation (colony assay) IC50; type: cell-based; conditions: NCI-H2023; H2023, mutant SMARCA4
[11] = system: HCC366; experiment: Cell proliferation (colony assay) IC50; type: cell-based; conditions: HCC366, mutant SMARCA4
[12] = system: H441; experiment: Cell proliferation (colony assay) IC50; type: cell-based; conditions: Homo sapiens, NCI-H441; H441, wild-type SMARCA4
[13] = system: wild-type SMARCA4 cells; experiment: Colony assay / cell proliferation, wild-type SMARCA4 cell lines as a group; type: cell-based
Method: as §1

[14] = biological target: SMARCA2 (Homo sapiens, UniProt P51531); experiment: Immunohistochemistry of SMARCA2 in H1299 xenograft tumors; type: in vivo; set-up: from tissue; host or cells: H1299 xenograft tumour tissue from female NCR Nude mice; conditions: NCR Nude mice, 200 mg/kg intraperitoneally once per day for four days
Chain of SMARCA2 (P51531 whole entry): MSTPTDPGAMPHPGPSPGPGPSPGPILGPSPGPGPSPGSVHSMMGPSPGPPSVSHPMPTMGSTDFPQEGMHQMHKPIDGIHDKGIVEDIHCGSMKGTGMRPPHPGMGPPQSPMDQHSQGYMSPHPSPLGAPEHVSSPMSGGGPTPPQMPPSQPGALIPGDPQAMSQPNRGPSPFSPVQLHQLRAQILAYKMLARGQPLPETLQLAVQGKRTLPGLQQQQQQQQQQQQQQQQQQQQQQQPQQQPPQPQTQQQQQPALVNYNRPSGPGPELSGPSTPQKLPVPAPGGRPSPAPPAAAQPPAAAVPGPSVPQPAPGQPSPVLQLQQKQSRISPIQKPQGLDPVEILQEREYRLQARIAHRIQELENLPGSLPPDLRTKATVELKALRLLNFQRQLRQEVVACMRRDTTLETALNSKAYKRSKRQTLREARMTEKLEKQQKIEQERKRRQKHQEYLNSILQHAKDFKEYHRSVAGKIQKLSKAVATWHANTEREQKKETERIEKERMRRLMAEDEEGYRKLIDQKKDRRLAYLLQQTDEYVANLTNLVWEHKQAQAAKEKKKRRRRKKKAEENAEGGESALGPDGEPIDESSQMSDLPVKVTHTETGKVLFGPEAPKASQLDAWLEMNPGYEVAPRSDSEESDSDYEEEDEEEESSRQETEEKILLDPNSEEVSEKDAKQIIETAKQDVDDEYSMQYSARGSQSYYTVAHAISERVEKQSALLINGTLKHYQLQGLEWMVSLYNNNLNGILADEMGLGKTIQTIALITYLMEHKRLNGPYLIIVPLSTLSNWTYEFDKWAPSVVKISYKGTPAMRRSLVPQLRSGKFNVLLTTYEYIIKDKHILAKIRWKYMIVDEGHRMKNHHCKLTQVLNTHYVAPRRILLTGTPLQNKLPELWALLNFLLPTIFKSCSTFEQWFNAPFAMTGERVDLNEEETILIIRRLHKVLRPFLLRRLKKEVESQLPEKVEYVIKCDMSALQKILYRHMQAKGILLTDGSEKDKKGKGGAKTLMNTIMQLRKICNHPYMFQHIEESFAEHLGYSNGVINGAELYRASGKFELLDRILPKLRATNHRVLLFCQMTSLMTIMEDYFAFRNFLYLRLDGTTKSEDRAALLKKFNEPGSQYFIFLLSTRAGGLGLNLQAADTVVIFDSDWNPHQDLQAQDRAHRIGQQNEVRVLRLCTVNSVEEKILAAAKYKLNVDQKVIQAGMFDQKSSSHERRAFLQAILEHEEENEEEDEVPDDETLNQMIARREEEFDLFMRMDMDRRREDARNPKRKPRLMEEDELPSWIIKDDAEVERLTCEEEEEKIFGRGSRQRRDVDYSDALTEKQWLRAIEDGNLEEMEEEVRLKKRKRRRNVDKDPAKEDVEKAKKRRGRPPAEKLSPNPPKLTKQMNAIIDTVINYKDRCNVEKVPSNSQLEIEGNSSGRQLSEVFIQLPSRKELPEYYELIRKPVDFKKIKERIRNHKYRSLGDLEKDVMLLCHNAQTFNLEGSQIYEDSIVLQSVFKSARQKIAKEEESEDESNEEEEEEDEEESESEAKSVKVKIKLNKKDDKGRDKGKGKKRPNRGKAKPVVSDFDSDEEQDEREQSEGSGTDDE
Method: NCR Nude mice were injected with vehicle or SMARCA2 degrader Compound 101 (200 mg/kg) once per day for four consecutive days intraperitoneally. Tumor tissues were harvested 24 hours after the last dose and fixed in formalin for 24 hours, paraffin embedded, sectioned and stained according to standard procedures. Briefly, endogenous peroxidases were inactivated by 3% hydrogen peroxide. Non-specific signals were blocked using 3% BSA, 10% goat serum in 0.1% Triton X-100. After antigen retrieval in citrate buffer, slides were stained overnight at 4° C. using SMARCA2 antibodies (Cell Signaling, D9E8B1:2000). After overnight incubation, the slides were washed and incubated with secondary antibody (HRP-polymers, Biocare Medical) for 30 min at room temperature. The slides were washed three times and stained with DAB substrate (ThermoFisher Scientific). The slides were then counterstained with haematoxylin and mounted with mounting medium. The slides were imaged by Vectra microscope and the signal intensity and percentage of cells positive for SMARCA2 was quantified using Vectra 3.0.7 software.

IC50 [1]: 900 nM
IC50 [2]: 93 nM
IC50 [3]: 141 nM
IC50 [4]: 8700 nM
IC50 [5]: 2500 nM
IC50 [6]: 817 nM
IC50 [7]: 970 nM
IC50 [9]: > 10000 nM
IC50 [10]: 483 nM
IC50 [11]: 242 nM
IC50 [12]: > 10000 nM
SMARCA2 in tumor tissue by immunohistochemistry (in words) [14]: significant reduction in SMARCA2
reduction in the percentage of SMARCA2 positive cells ([14]; tumor harvested 24 hours after last dose, versus vehicle): more than 50%
Compound: Nc1nnc(-c2ccccc2O)cc1N1CCN(Cc2ccc(OCCOCCNc3cccc4c3C(=O)N(C3CCC(=O)NC3=O)C4=O)c(F)c2)CC1 (stereo not drawn) [Compound 101]
colony growth / proliferation of mutant SMARCA4 cells (in words) ([8]; H1693, HCC515, H322, H1299, 0.001-10 μm): selectively inhibited SMARCA4 mutant cells; also recorded: selectively inhibited cell proliferation in mutant SMARCA4 cell lines
IC50 ([8]; mutant SMARCA4 cells (Table 5), upper end printed as >10 M, read-out: IC50, lower end of span over cell lines): ≥ 93 nM
inhibition at 0.1 µM ([8]; read-out: inhibition at 100 nM in SMARCA4 mutant cells (see FIG. 3D)): ≤ 50%
inhibition at 0.1 µM ([13]; read-out: inhibition at 100 nM in wild-type SMARCA4 cells (see FIG. 3D)): < 10%
IC50 ([13]; wild-type SMARCA4 cells (Table 4), read-out: IC50, span over cell lines): 970 to 10000 nM
